{"source": "patent US20200378956A1", "about": "“HUMAN MICROPHYSIOLOGICAL CELL SYSTEM FOR LIVER DISEASE CONVERSTION PROV 1-18585 AND PROV 2-19154” (EMULATE, INC., priority 2018, published 2020)", "key": {"[1]": {"test_system": "hepatocytes", "details": "both the hepatocyte channel and the LSEC/Kupffer-cell channel"}, "[2]": {"test_system": "Human hepatocyte conventional plate cell culture", "assay": "Bosentan ALT release, conventional plate cell culture", "assay_type": "cell-based", "details": "various concentrations of bosentan", "description": "(§1) FIG. 49A-B presents exemplary data showing the release of alanine transaminase (ALT) in response to various concentrations of bosentan. • FIG. 49A: Human hepatocyte microchip culture. • FIG. 49B: Human hepatocyte conventional plate cell culture.\n(§2) These microfluidic systems also enable high-resolution, real-time imaging coupled with a capability for in vitro analysis of biochemical, genetic and metabolic activities, all in the functional context of living tissue. This technology can be used to evaluate tissue development, organ physiology and/or disease etiology. In the context of drug discovery, including safety and efficacy, this technology is especially valuable for the study of molecular mechanisms of action, prioritization of lead candidates, toxicity testing and biomarker identification. Bhatia et al., “Microfluidic organs-on-chips” Nature Biotechnology 2014, 32(8):760-772. […] See, FIGS. 54A-B."}, "[3]": {"test_system": "Bile Salt Export Pump (BSEP, ABCB11)", "assay": "Bosentan effect on co-transporter gene expression", "assay_type": "cell-based", "details": "after three (3) days of culture"}, "[4]": {"test_system": "sodium/bile acid cotransporter", "assay": "Bosentan effect on co-transporter gene expression", "assay_type": "cell-based", "details": "after three (3) days of culture", "description": "FIG. 50A-B presents exemplary data showing the effect of bosentan on co-transporter gene expression. • FIG. 50A: Sodium/bile co-transporter. • FIG. 50B: Bile Salt Export Pump (BSEP, ABCB11) co-transporter.\nas §2"}, "[5]": {"test_system": "human hepatocyte microchips", "assay": "Bosentan ALT release, hepatocyte microchip culture", "assay_type": "cell-based", "details": "various concentrations of bosentan", "description": "as §1, §2"}, "[6]": {"test_system": "2D models", "details": "i.e., ~0.4%; cited from earlier work"}, "[7]": {"test_system": "Liver-Chip hepatocytes", "assay": "Ethanol / LPS dosing Liver-Chip study (FIG. 81-83)", "quoted_text": "Oxidative stress was measured by staining of ROS-positive hepatocytes with MitoSOX™ Red (a fluorogenic dye specifically targeted to mitochondria in live cells. Oxidation of MitoSOX™ Red reagent produces red fluorescence.\nOxidation (red) is shown in the lower row stained with MitoSOX™ Red."}, "[8]": {"test_system": "tri-culture of hepatocytes and Kupffer cells", "details": "for cholesterol release: ethanol 0.04-0.16% BAC"}, "[9]": {"test_system": "co-culture hepatocyte microchip", "assay": "Fructose-induced liver injury on co-culture hepatocyte microchip", "assay_type": "cell-based", "experimental": "The cell culture media effluent was analyzed for triglycerides, glycogen and glucose from both the top and bottom channels of the microchannel. See, Example 1. Cell imaging analysis of lipid droplet accumulation was performed with AdipoRed® and visualized with brightfield imaging.\nThe hepatocyte cells and endothelial cells were seeded and incubated as a co-culture in a hepatocyte microchip and samples were collected a specific time points. See, FIG. 32.\nThe specific media compositions were as follows: • Liver culture media: • Top Channel: DMEM (LG) 0% FBS, NEAA 1:200, ITSG 1:10,000, Vitamin C & dexamethasone\nTo each media, either a 1:1 glucose:fructose ratio (low fructose) or a 0.7:1.4 glucose:fructose ratio (high fructose) is added."}, "[10]": {"test_system": "co-culture of hepatocytes and liver sinusoidal endothelial cells (LSECs)", "assay": "In vitro NAFLD model, high fat diet on co-culture hepatocyte microchip", "assay_type": "cell-based", "experimental": "For example, a co-culture of hepatocytes and liver sinusoidal endothelial cells (LSECs) cultured on a hepatocyte microchip were exposed to a high fat diet comprising of oleic acid ([…]) for up to two days. Accumulating fat droplets within these cultured hepatocytes were identified with AdipoRed® or NileRed® staining. […] See, FIG. 15. […] See, FIGS. 16A-C. Additionally, the number of lipid droplets were quantitated as well as the accompanying glucose level was determined. […] See, FIG. 18A. […] See, FIG. 18B. Photomicrographs of LSEC mitochondrial function correlate in a positive manner with twenty-four (24) hours of a high fat cell diet. See, FIG. 18C. Photomicrographs of hepatocyte mitochondrial function correlate in a positive manner after twenty-four (24) hours of a high fat cell diet. See, FIG. 18D. […] See, FIG. 19. […] The high fat diet exposure between 24-48 hours was also performed with and without the insulin-secretion agonist, Exendin. See, FIG. 60A. […] See, FIGS. 60B, 62C, 17A-B."}, "[11]": {"test_system": "hepatocyte microchip co-culture system (e.g., Liver-Chip)", "assay": "Fatty acid-induced steatosis in WEN/CSC media (Example IV)", "assay_type": "cell-based", "experimental": "This example was performed on a hepatocyte microchip co-culture system (e.g., Liver-Chip). As a control condition, normal cell culture media “diet” (WEN media) was flowed through the top channel of the microchip, while a CSC 10% SFB was flowed through the bottom channel of the microchip. […] The following measurements were taken: i) Lipid drop staining with Nile Red®; ii) cholesterol quantification; iii) free fatty acid quantification; and iv) glucose quantification."}, "[12]": {"test_system": "tri-culture of hepatocytes, liver sinusoidal endothelial cells (LSECs) and Kupffer cells", "assay": "In vitro NASH model, high fat diet and LPS on tri-culture hepatocyte microchip", "assay_type": "cell-based", "experimental": "For example, a tri-culture of hepatocytes, liver sinusoidal endothelial cells (LSECs) and Kupffer cells were cultured on a hepatocyte microchip and exposed to a high fat diet comprising oleic acid. Subsequently, LPS (1 μg/ml ) was added to the high fat diet media to induce a Kupffer cell-mediated inflammatory response. […] See, FIG. 20B. When oleic acid exposure is supplemented with LPS the observance of stained lipid droplets decreases. See, FIG. 20C. […] See, FIG. 20D. […] See, FIG. 21A. […] See, FIG. 22A cf FIG. 22B. […] See, FIG. 23."}, "[13]": {"test_system": "hepatic stellate cells", "assay": "Fibrosis development in the Liver-Chip", "assay_type": "cell-based", "details": "FIG. 46B"}, "[14]": {"test_system": "quadruple co-culture of hepatocytes, Kupffer cells, LSEC cells and Stellate cells", "assay": "Quadruple co-culture cell activation", "assay_type": "cell-based", "details": "FIG. 13B"}, "[15]": {"details": "liver culture media, 48 hours, low or high fructose"}, "[16]": {"details": "oleic acid (0.1 to 0.5 μM) for up to two days"}}, "note": "Like-named read-outs stand apart in the source and are kept apart here.", "data": [{"compound": "Nc1c2c(nc3ccccc13)CCCC2", "note": "[Tacrine, tacrine]", "values": [{"measurement": "IL-1-α", "setting": "[1]", "value": "accumulation"}, {"measurement": "IL-1beta", "setting": "[1]", "value": "accumulation"}, {"measurement": "IL-6", "setting": "[1]", "value": "accumulation"}]}, {"compound": "COc1ccccc1Oc1c(NS(=O)(=O)c2ccc(C(C)(C)C)cc2)nc(-c2ncccn2)nc1OCCO", "note": "[bosentan]", "values": [{"measurement": "secreted alanine transaminase (ALT) levels", "setting": "[2]", "value": "lack of response"}, {"measurement": "BSEP transporter expression levels", "setting": "[3]", "value": "reduce sodium/bile acid cotransporter and BSEP transporter expression levels in a dose-dependent fashion"}, {"measurement": "sodium/bile acid cotransporter expression levels", "setting": "[4]", "value": "reduce sodium/bile acid cotransporter and BSEP transporter expression levels in a dose-dependent fashion"}, {"measurement": "secreted alanine transaminase (ALT) levels", "setting": "[5]", "value": "dose dependent increment"}]}, {"compound": "CCO", "note": "[ethanol]", "values": [{"measurement": "ethanol concentration significantly decreasing viability", "setting": "[6]", "value": "greater than 100 mM"}, {"measurement": "ethanol concentration at which modifications in glucose release levels were observed", "setting": "[7]", "value": "above 0.32%"}, {"measurement": "alcohol-induced steatosis", "setting": "[7]; after ethanol-free recovery", "value": "reverted"}, {"measurement": "cholesterol release (effluent)", "setting": "[7]; ethanol at physiologically relevant BAC", "value": "increase of cholesterol release"}, {"measurement": "cholesterol storage", "setting": "[7]; ethanol dosing", "value": "increased cholesterol and glycogen storage"}, {"measurement": "glycogen storage", "setting": "[7]; ethanol dosing", "value": "increased cholesterol and glycogen storage"}, {"measurement": "hepatocyte viability (albumin as viability marker)", "setting": "[7]; ethanol dosing condition", "value": "sublethal"}, {"measurement": "lipid droplet accumulation", "setting": "[8]; 0.16% ethanol, 120 hours of recovery (Day 7)", "value": "statistically significant as compared to vehicle control"}, {"measurement": "cholesterol levels", "setting": "[8]; after 48 h of recovery", "value": "back to normal"}, {"measurement": "cholesterol release", "setting": "[8]; 24 h", "value": "increased"}, {"measurement": "cholesterol release", "setting": "[8]; 48 h", "value": "intensified"}]}, {"compound": "O=C(CO)[C@@H](O)[C@H](O)[C@H](O)CO", "note": "[fructose]", "values": [{"measurement": "extracellular glycogen levels", "setting": "[9]; 24 or 72 hours", "value": "No significant differences"}, {"measurement": "triglyceride levels", "setting": "[9]; 24 or 72 hours, or intestinal effluent media", "value": "No significant differences"}, {"measurement": "glucose in microchannel effluent", "setting": "[9]; 48 h, fructose media", "value": "observed to increase"}, {"measurement": "glucose in microchannel effluent", "setting": "[9]; intestinal effluent culture media, with or without fructose", "value": "no difference observed"}, {"measurement": "hepatocyte cell number", "setting": "[9]; [15]", "value": "decreased hepatocyte cell number"}, {"measurement": "hepatocyte cell size", "setting": "[9]; [15]", "value": "increased hepatocyte cell size"}, {"measurement": "hepatocyte viability", "setting": "[9]; [15]", "value": "no effect on hepatocyte viability"}, {"measurement": "cholesterol levels", "setting": "[9]; liver media or intestinal effluent media, 24, 48 or 72 hours", "value": "failed to significantly increase cholesterol levels"}, {"measurement": "extracellular glycogen levels", "setting": "[9]; low or high fructose, liver media or intestinal effluent media, 48 hours", "value": "dose-dependent decrease"}, {"measurement": "triglyceride levels", "setting": "[9]; low or high fructose, liver media, 48 hours", "value": "dose-dependent increase"}]}, {"compound": "CCCCCCCC/C=C\\CCCCCCCC(=O)O", "note": "[oleic acid]", "values": [{"measurement": "cholesterol concentration", "setting": "[10]; high fat diet", "value": "observed to increase"}, {"measurement": "free fatty acids concentration", "setting": "[10]; high fat diet", "value": "observed to increase"}, {"measurement": "number of nuclei (hepatocyte proliferation or polyploidy)", "setting": "[10]; high fat diet", "value": "increase in the number of nuclei"}, {"measurement": "LSEC morphology by bright field imaging", "setting": "[10]; [16]", "value": "developed an injury morphology"}, {"measurement": "lipid droplets accumulation inside co-cultured hepatocytes", "setting": "[10]; [16]", "value": "significant increase of lipid droplets accumulation"}, {"measurement": "extracellular glucose concentration", "setting": "[10]; oleic acid (0.1 to 0.5 μM), 48 hours", "value": "significantly higher"}, {"measurement": "cell viability (mitochondrial function)", "setting": "[10]; two day high fat diet", "value": "did not result in any significant reduction in cell viability"}, {"measurement": "oxidative stress markers, reactive oxygen species (ROS)", "setting": "[10]; two day high fat diet", "value": "increase in reactive oxygen species"}, {"measurement": "LSEC morphology", "setting": "[11]; 1 μM Oleic acid", "value": "alterations in morphology"}, {"measurement": "hepatocyte lipid droplet accumulation over time", "setting": "[11]; 1 μM Oleic acid, 0, 40 and 64 hours", "value": "progressive accumulation"}, {"measurement": "hepatocyte free fatty acids", "setting": "[11]; 1 μM Oleic acid, forty hours", "value": "shown to increase"}, {"measurement": "lipid droplets in hepatocytes", "setting": "[11]; high oleic acid concentration media, FIG. 7A", "value": "Increased concentration of lipid droplets"}, {"measurement": "LSEC morphological features", "setting": "[11]; oleic acid, 5 μM, 2 day exposure, FIG. 7B", "value": "Morphological features indicative of injury/stress exposure"}, {"measurement": "lipid droplet accumulation, cells proximal to channel inlet compared to channel outlet", "setting": "[12]; 48 hours of high fat diet of oleic acid", "value": "higher density of lipid droplet accumulation"}, {"measurement": "observable fat droplets in the hepatocytes", "setting": "[12]; oleic acid only vs control", "value": "significant increase in observable fat droplets"}]}, {"compound": "TGF-α: factor printed as activating hepatic stellate cells in FIG. 46B", "values": [{"measurement": "hepatic stellate cell activation", "setting": "[13]", "value": "activation of hepatic stellate cells"}]}, {"compound": "TGF-β: growth factor used for stellate cell activation", "values": [{"measurement": "stellate cell activation (α-SMA staining)", "setting": "[14]", "value": "Stellate cell activation"}]}]}
